# Reference: patent publication US9340821B2, “Specific fluorescent probe based on albumin pseudo-esterase hydrolysis reaction and use thereof” (DALIAN INSTITUTE OF CHEMICAL PHYSICS, CHINESE ACADEMY OF …, priority 2013, dated 2016)
# Tests used:
# [1] = molecular target: T1, HSA (Homo sapiens, UniProt P02768); test: Quantitative analysis of albumin in human plasma sample; design: from tissue; host or cells: human plasma (A3); human urine (A4); conditions: human plasma diluted 200 times in PBS pH 7.4, probe 10 μM, 45° C., 30 min
# Method: (1) 1 μL of human plasma sample was diluted to 200 times by PBS (pH 7.4, 10 mM), then samples were incubated turmoil at 45° C. for 10 min.
# (2) 4 μL fluorescent probe B (0.5 mM) was added to the above solution to make the final concentration of the fluorescent probe to 10 μM, and then samples were incubated at 45° C.
# (3) After 30 min, 200 μL of ice-cold CH3CN was added to the sample and stirred, and then the reaction was stopped.
# (4) Detecting the fluorescence intensity of probe B (λex=342 nm, λem=416 nm) and hydrolysate B1 (λex=452 nm, λem=564 nm) at corresponding wavelength and calculating the fluorescence intensity ratio of B1 to B, the fluorescence ratio was substituted into working curve from example 2, concentration of HSA in plasma albumin was calculated as […].
# [2] = molecular target: T1, HSA; test: Quantitative analysis of albumin in urine sample; conditions: human urine diluted with PBS pH 7.4, probe 10 μM, 37° C., 30 min
# Method: (1) 490 μL of human urine sample was diluted by 490 μL PBS (pH 7.4, 10 mM), and then samples were incubated at 45° C. for 10 min.
# (2) 20 μL fluorescent probe C (0.5 mM) was added to the above solution to make the final concentration of the fluorescent probe to 10 μM, and then samples were incubated turmoil at 37° C. for 30 min, 1 mL ice-cold CH3CN was added to the sample and stirred for 15 second, then the reaction was stopped.
# (3) Detecting the fluorescence intensity of probe C (λex=342 nm, λem=416 nm) and hydrolysate C1 (λex=452 nm, λem=564 nm) at corresponding wavelength and the fluorescence intensity ratio of C1 to C was calculated.
# (4) Finding the corresponding albumin level in the working curve, concentration of HSA in the sample was calculated as 48 mg/L.
# [3] = molecular target: T1, HSA; test: Quantitative analysis of HSA in recombinant expression system; conditions: 1 mg/mL recombinant HSA in PBS pH 7.4, probe 10 μM, 37° C., 30 min
# Method: (1) 10 mg recombinant HSA was weighted and dissolved in PBS (pH=7.4), configuring to 1 mg/mL albumin solution at 37° C.
# (2) 20 μL fluorescent probe D (0.5 mM) was added to the above solution to make the final concentration of the fluorescent probe to 10 μM, and then samples were incubated turmoil at 37° C. for 30 min, 1 mL ice-cold CH3CN was added to the sample and stirred for 15 second, then the reaction stopped.
# (3) Detecting the fluorescence intensity of probe D (λex=342 nm, λem=416 nm) and hydrolysate D1 (λex=452 nm, λem=564 nm) at corresponding wavelength and the fluorescence intensity ratio of D1 to D was calculated.
# (4) Based on the working curve, the concentration of HSA in this sample (1 mg/mL recombinant HSA solution) was calculated as 14.9 μM.
# T1 sequence (P02768 25-609): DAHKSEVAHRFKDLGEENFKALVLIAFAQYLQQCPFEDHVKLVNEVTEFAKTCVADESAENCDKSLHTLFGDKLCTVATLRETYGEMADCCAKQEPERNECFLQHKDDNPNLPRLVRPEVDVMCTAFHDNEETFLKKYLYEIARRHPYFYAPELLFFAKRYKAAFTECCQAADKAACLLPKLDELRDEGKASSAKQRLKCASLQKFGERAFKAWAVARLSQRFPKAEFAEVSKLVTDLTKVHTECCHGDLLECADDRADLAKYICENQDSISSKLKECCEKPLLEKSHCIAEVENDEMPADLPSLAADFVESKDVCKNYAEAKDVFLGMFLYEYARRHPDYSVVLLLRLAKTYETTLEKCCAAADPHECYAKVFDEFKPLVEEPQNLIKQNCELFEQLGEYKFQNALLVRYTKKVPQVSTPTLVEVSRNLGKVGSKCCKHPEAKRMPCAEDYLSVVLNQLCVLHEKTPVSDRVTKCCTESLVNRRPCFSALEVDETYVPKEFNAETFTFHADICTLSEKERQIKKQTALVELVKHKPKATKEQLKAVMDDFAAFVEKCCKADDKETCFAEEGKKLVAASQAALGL
structure (smiles),measurement,setting,value
"CCCCN1C(=O)c2cccc3c(OC(=O)c4ccc(C)cc4)ccc(c23)C1=O [Probe B, N-n-butyl-1,8-naphthalimide-4-(4-methylphenylbenzoate)]",concentration of HSA in plasma calculated from fluorescence ratio,[1],46.2 mg/mL
"O=C(O)CCCN1C(=O)c2cccc3c(OC(=O)c4ccc(-c5ccccc5)cc4)ccc(c23)C1=O [Probe C, N-3-carboxy propyl-1,8-naphthalimide-4-phenylbenzoate]",concentration of HSA in urine sample calculated from working curve,[2],48 mg/L
"CCCCN1C(=O)c2cccc3c(OC(=O)c4ccc(OC)cc4)ccc(c23)C1=O [Probe D, N-n-butyl-1,8-naphthalimide-4-(4-methoxyphenylbenzoate)]",concentration of HSA in recombinant HSA solution calculated from working curve,[3],14.9 µM
